Reference: the supplement of paper PMC10307832

Tests used:
Assay in all cases: relative viability (nuclei count vs DMSO), 5 days (fraction); higher = more cells survive
BEN = system: BEN
Method in brief: (§1)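 Relative viability was taken as the ratio of nuclei in treated wells to nuclei in vehicle wells. Lung cancer cell lines in 1536-well plates received compounds by pin tool one day after seeding, either one drug alone or a fixed anchor-drug dose plus five library-drug doses (not always all listed) in √10 steps. Nuclei were counted on 4× images after 5 days of treatment, and values are medians of duplicate plates.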

EMC-BAC-2 = system: EMC-BAC-2
Method in brief: as §1

H3255 = system: H3255
Method in brief: as §1

HOP-62 = system: HOP-62
Method in brief: as §1

LCLC-97TM1 = system: LCLC-97TM1
Method in brief: as §1

LXF-289 = system: LXF-289
Method in brief: as §1

NCI-H1650 = system: NCI-H1650
Method in brief: as §1

NCI-H1915 = system: NCI-H1915
Method in brief: as §1

NCI-H1993 = system: NCI-H1993
Method in brief: as §1

NCI-H2009 = system: NCI-H2009
Method in brief: as §1

NCI-H2023 = system: NCI-H2023
Method in brief: as §1

NCI-H2085 = system: NCI-H2085
Method in brief: as §1

NCI-H2126 = system: NCI-H2126
Method in brief: as §1

NCI-H2342 = system: NCI-H2342
Method in brief: as §1

NCI-H2347 = system: NCI-H2347
Method in brief: as §1

NCI-H322M = system: NCI-H322M
Method in brief: as §1

NCI-H358 = system: NCI-H358
Method in brief: as §1

NCI-H647 = system: NCI-H647
Method in brief: as §1

NCI-H661 = system: NCI-H661
Method in brief: as §1

NCI-H727 = system: NCI-H727
Method in brief: as §1

PC-14 = system: PC-14
Method in brief: as §1

SK-LU-1 = system: SK-LU-1
Method in brief: as §1

SW 1573 = system: SW 1573
Method in brief: as §1

Question: Which relative viability (BEN; first compound 0.01 µM) does the source give for CC(C)Oc1cc(Nc2nc(N[C@@H](C)c3ccc(F)cn3)ncc2Cl)n[nH]1 [AZ23] + Nc1ncn([C@H]2C[C@H](O)[C@@H](CO)O2)c(=O)n1 [Decitabine] (partner 2 µM) here?
Answer: 0.736

Question: And the relative viability (BEN; first compound 0.03162 µM)?
Answer: 0.829

Question: What about the relative viability (BEN; first compound 0.3162 µM) of the same compound?
Answer: 0.667

Question: And the relative viability (EMC-BAC-2; first compound 0.01 µM)?
Answer: 0.966

Question: And the relative viability (EMC-BAC-2; first compound 0.03162 µM)?
Answer: 0.998

Question: What about the relative viability (EMC-BAC-2; first compound 0.3162 µM) of the same compound?
Answer: 0.949

Question: What about the relative viability (H3255; first compound 0.01 µM) of the same compound?
Answer: 0.496

Question: What about the relative viability (H3255; first compound 0.03162 µM) of the same compound?
Answer: 0.634

Question: And the relative viability (H3255; first compound 0.3162 µM)?
Answer: 0.613

Question: What about the relative viability (HOP-62; first compound 0.01 µM) of the same compound?
Answer: 0.282

Question: And the relative viability (HOP-62; first compound 0.03162 µM)?
Answer: 0.21

Question: And the relative viability (HOP-62; first compound 0.3162 µM)?
Answer: 0.195

Question: And the relative viability (LCLC-97TM1; first compound 0.01 µM)?
Answer: 0.273

Question: And the relative viability (LCLC-97TM1; first compound 0.03162 µM)?
Answer: 0.212

Question: And the relative viability (LCLC-97TM1; first compound 0.3162 µM)?
Answer: 0.233

Question: And the relative viability (LXF-289; first compound 0.01 µM)?
Answer: 0.469

Question: And the relative viability (LXF-289; first compound 0.03162 µM)?
Answer: 0.374

Question: And the relative viability (LXF-289; first compound 0.3162 µM)?
Answer: 0.403

Question: What about the relative viability (NCI-H1650; first compound 0.01 µM) of the same compound?
Answer: 0.421

Question: And the relative viability (NCI-H1650; first compound 0.03162 µM)?
Answer: 0.41

Question: And the relative viability (NCI-H1650; first compound 0.3162 µM)?
Answer: 0.481

Question: What about the relative viability (NCI-H1915; first compound 0.01 µM) of the same compound?
Answer: 0.293

Question: And the relative viability (NCI-H1915; first compound 0.03162 µM)?
Answer: 0.272

Question: And the relative viability (NCI-H1915; first compound 0.3162 µM)?
Answer: 0.269

Question: And the relative viability (NCI-H1993; first compound 0.01 µM)?
Answer: 0.514

Question: And the relative viability (NCI-H1993; first compound 0.03162 µM)?
Answer: 0.626

Question: And the relative viability (NCI-H1993; first compound 0.3162 µM)?
Answer: 0.513

Question: And the relative viability (NCI-H2009; first compound 0.01 µM)?
Answer: 0.406

Question: What about the relative viability (NCI-H2009; first compound 0.03162 µM) of the same compound?
Answer: 0.356

Question: And the relative viability (NCI-H2009; first compound 0.3162 µM)?
Answer: 0.396

Question: And the relative viability (NCI-H2023; first compound 0.03162 µM)?
Answer: 0.259

Question: What about the relative viability (NCI-H2023; first compound 0.3162 µM) of the same compound?
Answer: 0.239

Question: What about the relative viability (NCI-H2085; first compound 0.01 µM) of the same compound?
Answer: 0.565

Question: And the relative viability (NCI-H2085; first compound 0.03162 µM)?
Answer: 0.539

Question: And the relative viability (NCI-H2085; first compound 0.3162 µM)?
Answer: 0.5

Question: And the relative viability (NCI-H2126; first compound 0.01 µM)?
Answer: 0.612

Question: What about the relative viability (NCI-H2126; first compound 0.03162 µM) of the same compound?
Answer: 0.615

Question: And the relative viability (NCI-H2126; first compound 0.3162 µM)?
Answer: 0.558

Question: And the relative viability (NCI-H2342; first compound 0.01 µM)?
Answer: 0.716

Question: And the relative viability (NCI-H2342; first compound 0.03162 µM)?
Answer: 0.778

Question: What about the relative viability (NCI-H2342; first compound 0.3162 µM) of the same compound?
Answer: 0.649

Question: And the relative viability (NCI-H2347; first compound 0.01 µM)?
Answer: 0.652

Question: And the relative viability (NCI-H2347; first compound 0.03162 µM)?
Answer: 0.571

Question: And the relative viability (NCI-H2347; first compound 0.3162 µM)?
Answer: 0.625

Question: What about the relative viability (NCI-H322M; first compound 0.01 µM) of the same compound?
Answer: 0.533

Question: And the relative viability (NCI-H322M; first compound 0.03162 µM)?
Answer: 0.668

Question: And the relative viability (NCI-H322M; first compound 0.3162 µM)?
Answer: 0.7

Question: What about the relative viability (NCI-H358; first compound 0.01 µM) of the same compound?
Answer: 0.261

Question: And the relative viability (NCI-H358; first compound 0.03162 µM)?
Answer: 0.214

Question: What about the relative viability (NCI-H358; first compound 0.3162 µM) of the same compound?
Answer: 0.179

Question: And the relative viability (NCI-H647; first compound 0.01 µM)?
Answer: 0.364

Question: What about the relative viability (NCI-H647; first compound 0.03162 µM) of the same compound?
Answer: 0.415

Question: And the relative viability (NCI-H647; first compound 0.3162 µM)?
Answer: 0.41

Question: What about the relative viability (NCI-H661; first compound 0.01 µM) of the same compound?
Answer: 0.556

Question: And the relative viability (NCI-H661; first compound 0.03162 µM)?
Answer: 0.582

Question: What about the relative viability (NCI-H661; first compound 0.3162 µM) of the same compound?
Answer: 0.604

Question: What about the relative viability (NCI-H727; first compound 0.01 µM) of the same compound?
Answer: 0.956

Question: What about the relative viability (NCI-H727; first compound 0.03162 µM) of the same compound?
Answer: 0.945

Question: What about the relative viability (NCI-H727; first compound 0.3162 µM) of the same compound?
Answer: 0.822

Question: And the relative viability (PC-14; first compound 0.01 µM)?
Answer: 0.191

Question: And the relative viability (PC-14; first compound 0.03162 µM)?
Answer: 0.213

Question: And the relative viability (PC-14; first compound 0.3162 µM)?
Answer: 0.263

Question: And the relative viability (SK-LU-1; first compound 0.03162 µM)?
Answer: 0.651

Question: What about the relative viability (SK-LU-1; first compound 0.3162 µM) of the same compound?
Answer: 0.643

Question: What about the relative viability (SW 1573; first compound 0.01 µM) of the same compound?
Answer: 0.699

Question: And the relative viability (SW 1573; first compound 0.03162 µM)?
Answer: 0.553

Question: And the relative viability (SW 1573; first compound 0.3162 µM)?
Answer: 0.612
